Here are results for 28 compounds from patent US20230286923A1 (INIPHARM, INC., priority 2020, published 2023).

A word on the IC50: it is the concentration at which inhibition is half-maximal. A low value points to greater potency.

Sequence of HSD17B13 enzyme (Q7Z5P4 20-300): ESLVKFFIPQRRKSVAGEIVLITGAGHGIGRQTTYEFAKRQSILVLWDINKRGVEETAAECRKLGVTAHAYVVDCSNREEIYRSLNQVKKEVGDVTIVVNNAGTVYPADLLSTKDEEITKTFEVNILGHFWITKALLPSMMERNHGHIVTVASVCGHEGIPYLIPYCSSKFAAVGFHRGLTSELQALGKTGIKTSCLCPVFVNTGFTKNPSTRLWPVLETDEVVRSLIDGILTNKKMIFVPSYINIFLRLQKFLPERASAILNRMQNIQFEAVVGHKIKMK

The target in this test is HSD17B13 enzyme (Homo sapiens (Human), UniProt Q7Z5P4). Description: Estrone detection assay (LC/MS, conversion of estradiol to estrone) for HSD17B13 activity. The format is biochemical. The note with it: substrate 4 µM estradiol, 6 mM NAD+, 30 nM enzyme. The protocol:
The liquid chromatography/mass spectrometry (LC/MS) estrone detection assay monitors the conversion of estradiol to estrone by HSD17B13. This assay was undertaken in a 96wp format (Eppendorf deep well Plate 96/500) in an 80 µl reaction volume containing: 4 µM of Estradiol (E2; Cayman; #10006315), 6 mM NAD^+ (Sigma; #N0623) and 30 nM HSD17B13 enzyme (in-house; E. coli expressed His-tagged, purified, soluble protein) in a reaction containing 1 M potassium phosphate buffer pH 7.4, with 0.5% vehicle (DMSO). Reactions were incubated for 2 hours at 26.5° C., and estradiol (E2) conversion to estrone (E1) was quantitated by LC-MS/MS based analyte detection for both E2 and E1 using LCMS grade reagents.
Reactions were terminated by the addition of two volumes of acetonitrile (MeCN; LCMS grade; CAS# 75/05/8) containing deuterated (D4)-E1 used as internal standard (Clear Synth; #CS-T-54273; 500 ng/mL final concentration). Samples were applied to pre-prepared Bond Elut-C18 extraction cartridges (3 mL; Agilent; #12102028), washed and eluted in MeCN. Eluates were dried under nitrogen and re-suspended in 60% methanol (LCMS grade methanol; CAS# 67/56/1) before submission for analysis. Aqueous linearity for E2 and E1 were included for quantification.
Analysis of samples was undertaken on a XBridge BEH C18 column (Waters; #186003033) using 0.1% Diethyl Amine in MeCN (mobile phase A; DEA CAS# 109-89-7) and 0.1% Diethyl Amine in milli-Q water (mobile phase B) in a 3 min gradient allowing 25%B. Analytes were detected in negative mode using MRM analysis, with E2 having a RT of 1.85 min and E1 having a RT of 2 min. Activity of the enzyme, in the absence of NAD^+, was used to evaluate specificity of conversion. Enzyme activity in the presence of test samples was expressed as a percentage of the uninhibited enzyme activity, and plotted versus inhibitor concentration. Non-linear regression was performed using a four-parameter logistic model and GraphPad Prism software (GraphPad Software, La Jolla, CA). All assessments were undertaken in duplicate evaluations and pooled during extraction process and subsequently injected as duplicates for LC-MS/MS analysis.
In turn, `CC(C)(C)CCn1cnc2cccc(NC(=O)c3cnc(O)c(Cl)c3)c2c1=O` [Example 12, 5-chloro-N-(3-(3,3-dimethylbutyl)-4-oxo-3,4-dihydroquinazolin-5-yl)-6-hydroxynicotinamide] yielded a half-inhibitory concentration (IC50) of 1000 to 10000 nM. The compound `CC(C)(C)CCn1cnc2cccc(NC(=O)c3ccc(-c4nnn[nH]4)c(Cl)c3)c2c1=O` [Example 13, 3-chloro-N-(3-(3,3-dimethylbutyl)-4-oxo-3,4-dihydroquinazolin-5-yl)-4-(1H-tetrazol-5-yl)benzamide] displayed a concentration for half-maximal inhibition (IC50) of 1000 to 10000 nM. The same measure for `O=C(Nc1cccc2ncn(Cc3ccc(F)cc3)c(=O)c12)c1cc(Cl)c(O)c(C(F)(F)F)c1` [Example 35, 3-chloro-N-(3-(4-fluorobenzyl)-4-oxo-3,4-dihydroquinazolin-5-yl)-4-hydroxy-5-(trifluoromethyl)benzamide]: 100 to 1000 nM; for `O=C(Nc1cccc2ncn(Cc3nncs3)c(=O)c12)c1cc(Cl)c(O)c(C(F)(F)F)c1` [Example 36, N-(3-((1,3,4-thiadiazol-2-yl)methyl)-4-oxo-3,4-dihydroquinazolin-5-yl)-3-chloro-4-hydroxy-5-(trifluoromethyl)benzamide]: 1000 to 10000 nM; for `N#Cc1cc(C(=O)Nc2cccc3ncn(Cc4ccccc4F)c(=O)c23)cc(Cl)c1O` [Example 37, 3-chloro-5-cyano-N-(3-(2-fluorobenzyl)-4-oxo-3,4-dihydroquinazolin-5-yl)-4-hydroxybenzamide]: 100 to 1000 nM. As to `C[C@@H](c1cccc(F)c1)n1cnc2cccc(NC(=O)c3cc(Cl)c(O)c(C#N)c3)c2c1=O` [Example 38, (S)-3-chloro-5-cyano-N-(3-(1-(3-fluorophenyl)ethyl)-4-oxo-3,4-dihydroquinazolin-5-yl)-4-hydroxybenzamide], the half-maximal inhibitory concentration (IC50) is 100 to 1000 nM. The result for `O=C(Nc1cccc2ncn(Cc3ccccc3C(F)(F)F)c(=O)c12)c1cc(Cl)c(O)c(C(F)(F)F)c1` [Example 39, 3-chloro-4-hydroxy-N-(4-oxo-3-(2-(trifluoromethyl)benzyl)-3,4-dihydroquinazolin-5-yl)-5-(trifluoromethyl)benzamide] reads 100 to 1000 nM; that for `O=C(Nc1cccc2ncn(Cc3cccc(F)c3)c(=O)c12)c1cc(C(F)(F)F)c(O)c(C(F)(F)F)n1` [Example 40, N-(3-(3-fluorobenzyl)-4-oxo-3,4-dihydroquinazolin-5-yl)-5-hydroxy-4,6-bis(trifluoromethyl)picolinamide], 100 to 1000 nM. The result for `O=C(Nc1cccc2ncn(Cc3ccccc3F)c(=O)c12)c1cc(Cl)c(O)c(C(F)(F)F)c1` [Example 41, 3-chloro-N-(3-(2-fluorobenzyl)-4-oxo-3,4-dihydroquinazolin-5-yl)-4-hydroxy-5-(trifluoromethyl)benzamide] reads 100 to 1000 nM. The same measure for `O=C(Nc1cccc2ncn(Cc3cocn3)c(=O)c12)c1cc(Cl)c(O)c(C(F)(F)F)c1` [Example 42]: 1000 to 10000 nM; for `C[C@@H](c1cccc(F)c1)n1cnc2cccc(NC(=O)c3cc(Cl)c(O)c(C(F)(F)F)n3)c2c1=O` [Example 43, (S)-4-chloro-N-(3-(1-(3-fluorophenyl)ethyl)-4-oxo-3,4-dihydroquinazolin-5-yl)-5-hydroxy-6-(trifluoromethyl)picolinamide]: 100 to 1000 nM. `N#Cc1cc(C(=O)Nc2cccc3ncn(Cc4ccc(F)cc4)c(=O)c23)cc(F)c1O` [Example 44, 3-cyano-5-fluoro-N-(3-(4-fluorobenzyl)-4-oxo-3,4-dihydroquinazolin-5-yl)-4-hydroxybenzamide] came in with an IC50 of at most 100 nM. The same measure for `O=C(Nc1cccc2ncn(Cc3ccccc3F)c(=O)c12)c1cc(Cl)c(O)c(C(F)(F)F)n1` [Example 45, 4-chloro-N-(3-(2-fluorobenzyl)-4-oxo-3,4-dihydroquinazolin-5-yl)-5-hydroxy-6-(trifluoromethyl)picolinamide]: 100 to 1000 nM. The result for `O=C(Nc1cccc2ncn(Cc3ccc(C(F)(F)F)cc3)c(=O)c12)c1cc(Cl)c(O)c(C(F)(F)F)c1` [Example 46, 3-chloro-4-hydroxy-N-(4-oxo-3-(4-(trifluoromethyl)benzyl)-3,4-dihydroquinazolin-5-yl)-5-(trifluoromethyl)benzamide] reads 100 to 1000 nM; that for `C[C@@H](c1cccc(F)c1)n1cnc2cccc(NC(=O)c3cc(F)c(O)c(C#N)c3)c2c1=O` [Example 47, (S)-3-cyano-5-fluoro-N-(3-(1-(3-fluorophenyl)ethyl)-4-oxo-3,4-dihydroquinazolin-5-yl)-4-hydroxybenzamide], at most 100 nM. The same measure for `N#Cc1cc(C(=O)Nc2cccc3ncn(Cc4cccc(OC(F)(F)F)c4)c(=O)c23)cc(Cl)c1O` [Example 48, 3-chloro-5-cyano-4-hydroxy-N-(4-oxo-3-(3-(trifluoromethoxy)benzyl)-3,4-dihydroquinazolin-5-yl)benzamide]: 100 to 1000 nM; for `N#Cc1cc(C(=O)Nc2cccc3ncn(Cc4cccc(F)c4)c(=O)c23)cc(Cl)c1O` [Example 49, 3-chloro-5-cyano-N-(3-(3-fluorobenzyl)-4-oxo-3,4-dihydroquinazolin-5-yl)-4-hydroxybenzamide]: 100 to 1000 nM; for `O=C(Nc1cccc2ncn(Cc3ccccc3OC(F)(F)F)c(=O)c12)c1cc(Cl)c(O)c(C(F)(F)F)n1` [Example 50, 4-chloro-5-hydroxy-N-(4-oxo-3-(2-(trifluoromethoxy)benzyl)-3,4-dihydroquinazolin-5-yl)-6-(trifluoromethyl)picolinamide]: 100 to 1000 nM.

Take `O=C(Nc1cccc2ncn(Cc3ccc(C(F)(F)F)cc3)c(=O)c12)c1cc(Cl)c(O)c(C(F)(F)F)n1` [Example 51, 4-chloro-5-hydroxy-N-(4-oxo-3-(4-(trifluoromethyl)benzyl)-3,4-dihydroquinazolin-5-yl)-6-(trifluoromethyl)picolinamide]: the IC50 was 1000 to 10000 nM. The result for `N#Cc1cc(C(=O)Nc2cccc3ncn(Cc4ccccc4C(F)(F)F)c(=O)c23)cc(F)c1O` [Example 52, 3-cyano-5-fluoro-4-hydroxy-N-(4-oxo-3-(2-(trifluoromethyl)benzyl)-3,4-dihydroquinazolin-5-yl)benzamide] reads at most 100 nM. The same measure for `N#Cc1cc(C(=O)Nc2cccc3ncn(Cc4ccc(OC(F)(F)F)cc4)c(=O)c23)cc(F)c1O` [Example 53, 3-cyano-5-fluoro-4-hydroxy-N-(4-oxo-3-(4-(trifluoromethoxy)benzyl)-3,4-dihydroquinazolin-5-yl)benzamide]: 100 to 1000 nM; for `NC(=O)c1cc(C(=O)Nc2cccc3ncn(Cc4cccc(C(F)(F)F)c4)c(=O)c23)cc(F)c1O` [Example 54, 5-fluoro-4-hydroxy-N1-(4-oxo-3-(3-(trifluoromethyl)benzyl)-3,4-dihydroquinazolin-5-yl)isophthalamide]: 1000 to 10000 nM; for `O=C(Nc1cccc2ncn(Cc3ccccc3C(F)(F)F)c(=O)c12)c1cc(Cl)c(O)c(C(F)(F)F)n1` [Example 55, 4-chloro-5-hydroxy-N-(4-oxo-3-(2-(trifluoromethyl)benzyl)-3,4-dihydroquinazolin-5-yl)-6-(trifluoromethyl)picolinamide]: 100 to 1000 nM. `N#Cc1cc(C(=O)Nc2cccc3ncn(Cc4cccc(OC(F)(F)F)c4)c(=O)c23)cc(F)c1O` [Example 56, 3-cyano-5-fluoro-4-hydroxy-N-(4-oxo-3-(3-(trifluoromethoxy)benzyl)-3,4-dihydroquinazolin-5-yl)benzamide]: the concentration for half-maximal inhibition (IC50) was 100 to 1000 nM. The result for `N#Cc1cc(C(=O)Nc2cccc3ncn(Cc4cccc(C(F)(F)F)c4)c(=O)c23)cc(F)c1O` [Example 57, 3-cyano-5-fluoro-4-hydroxy-N-(4-oxo-3-(3-(trifluoromethyl)benzyl)-3,4-dihydroquinazolin-5-yl)benzamide] reads at most 100 nM. The result for `N#Cc1cc(C(=O)Nc2cccc3ncn(Cc4ccc(OC(F)(F)F)cc4)c(=O)c23)cc(Cl)c1O` [Example 58, 3-chloro-5-cyano-4-hydroxy-N-(4-oxo-3-(4-(trifluoromethoxy)benzyl)-3,4-dihydroquinazolin-5-yl)benzamide] reads 100 to 1000 nM; that for `N#Cc1cc(C(=O)Nc2cccc3ncn(Cc4ccc(C(F)(F)F)cc4)c(=O)c23)cc(F)c1O` [Example 59, 3-cyano-5-fluoro-4-hydroxy-N-(4-oxo-3-(4-(trifluoromethyl)benzyl)-3,4-dihydroquinazolin-5-yl)benzamide], at most 100 nM.

The compound `N#Cc1ccccc1Cn1cnc2cccc(NC(=O)c3cc(F)c(O)c(C#N)c3)c2c1=O` [Example 60, 3-cyano-N-{3-[(2-cyanophenyl)methyl]-4-oxo-3,4-dihydroquinazolin-5-yl}-5-fluoro-4-hydroxybenzamide] yielded a concentration for half-maximal inhibition (IC50) of at most 100 nM.
